Read-outs that look alike come from different tables or passages of the source.
Experiment: Levels of PCB 95 and its hydroxylated metabolites in adipose, blood, brain and liver 24 h after a single oral dose (GC-MS/MS)
Format: in vivo, mice
Settings: for Levels in blood / Levels in adipose / Levels in liver / concentration at 24 h: 1 mg/kg; for concentration at 24 h: po
Description: Adult male and female wild-type (WT) C57BL/6 mice, KO, and KI mice (4 months old) were exposed to racemic PCB 95. Mice were randomly assigned to exposure groups and received a single oral dose of PCB 95 (1.0 mg/kg) in stripped corn oil (10 mL/kg; lot# A0395699; cat# 801-03-7; Fisher Scientific) via gavage (5–7 mice per group). Control animals received corn oil alone (1–3 mice per group) to assess the potential background contamination with PCB 95. Animals were euthanized 24 h after PCB 95 exposure. Blood was collected from the heart and placed in pre-weighed glass vials with 80 μL of ethylenediaminetetraacetic acid solution (EDTA, 7.5%, w/w). The amount of blood in each vial was determined by weight prior to sample extraction. Adipose, brain, and liver tissues were excised from each animal and individually wrapped in aluminum foil. Samples were stored at −80 °C in separate plastic bags and shipped on dry ice to the University of Iowa for analysis.
PCB 95 and its hydroxylated metabolites were extracted from adipose (0.06 ± 0.01 g), brain (0.19 ± 0.03 g) and liver tissues (0.49 ± 0.07 g) by pressurized liquid extraction (PLE) with a Dionex ASE200 system (Dionex, Sunnyvale, CA, USA).[45] Tissues were homogenized with 2 g of pre-cleaned diatomaceous earth (Thermo Fisher Scientific, Pittsburgh, PA, USA) and placed in extraction cells loaded with 10 g of pre-extracted Florisil (60–100 mesh, Fisher Scientific, Pittsburgh, PA, USA). Tissue samples were then spiked with recovery standards [50 ng of PCB 117 in 50 μL of isooctane and 50 ng of 4′-159 (2′,3,3′,5,5′,6′-hexachlorobiphenyl-4-ol) in 50 μL of methanol]. For ongoing precision recovery (OPR) samples; recovery standard, internal standard, PCB 95, and its metabolites (50 ng each) were spiked to the method blank (DE only) and tissues from control animals. Cells were extracted with hexane–dichloromethane–methanol (48:43:9, v/v/v) at 100 °C and 1500 psi (10 MPa), with preheat equilibration for 6 min, 60% of cell flush volume, and 1 static cycle of 5 min. The extracts were concentrated to approximately 1 mL with a TurboVap II (Biotage, LLC, NC, USA) and transferred to new glass tubes with 1 mL of hexane. The solvent was evaporated to near dryness under a gentle stream of nitrogen, and extracts were redissolved in 1 mL of hexane.
PCB 95 and its hydroxylated metabolites were extracted from whole blood (0.45 ± 0.13 g) using a published liquid–liquid extraction procedure.[29] Briefly, blood samples were thawed, and 3 mL of aqueous 1% KCl solution was added to each sample. Recovery standards (50 ng of PCB 117 in 50 μL of isooctane and 50 ng of 4′-159 in 50 μL of methanol) were spiked to all samples, including OPR samples, before extraction. Subsequently, 1 mL of 6 M HCl, 5 mL of 2-propanol, and 5 mL of 1:1 hexane–MTBE mixture (v/v) were added to the blood samples. The samples were inverted for 5 min and centrifuged at 1690g for 5 min to facilitate the phase separation. Next, the organic phases were transferred to new glass tubes, and the aqueous phases were re-extracted with 3 mL of hexane. Next, three mL of aqueous 1% KCl were added to the combined organic extracts, and samples were inverted and centrifuged as described above. The organic phase was transferred to a new tube, and the aqueous phase was re-extracted with 3 mL of hexane. The combined organic extracts were evaporated to near dryness using a Savant SpeedVac SPD210 (Thermo Scientific, Waltham, MA, US), and each sample was reconstituted with 0.5 mL of hexane.
Five drops of methanol and 0.5 mL of diazomethane (CH2N2; about 0.1 mmol) in diethyl ether were added to the tissue or blood extracts to derivatize the OH-PCBs.[45] Diazomethane rapidly converts the phenolic hydroxyl groups of OH-PCBs to methoxy groups (i.e., −OH → −OCH3). All samples were stored at 4 °C for approximately 16 h. Excess diazomethane evaporated under a gentle stream of nitrogen in a fume hood, followed by adding 0.5 mL of hexane. […]

[1] = MKI, male CYP2A6-humanized mice, single oral PCB 95 1.0 mg/kg, mean ± SD
[2] = MWT, male wildtype mice, single oral PCB 95 1.0 mg/kg, mean ± SD

For `Clc1ccc(Cl)c(-c2c(Cl)ccc(Cl)c2Cl)c1` [PCB 95, 2,2′,3,5′,6-pentachlorobiphenyl], which Levels in blood (FKO, female Cyp2abfgs-null mice, single oral PCB 95 1.0 mg/kg, mean ± SD) is on record?
Its Levels in blood is 9 ng/g tissue.

What about the Levels in adipose (FWT, female wildtype mice, single oral PCB 95 1.0 mg/kg, mean ± SD) of the same compound?
The Levels in adipose was 1300 ng/g tissue.

What about the Levels in blood [1] of the same compound?
Its Levels in blood is 16 ng/g tissue.

And the Levels in liver [1]?
The Levels in liver was 183 ng/g tissue.

And the Levels in adipose (MKO, male Cyp2abfgs-null mice, single oral PCB 95 1.0 mg/kg, mean ± SD)?
Its Levels in adipose is 690 ng/g tissue.

What about the Levels in adipose [2] of the same compound?
The Levels in adipose was 1300 ng/g tissue.

What about the Levels in liver [2] of the same compound?
Its Levels in liver is 96 ng/g tissue.

And the Kp at 24 h (both sexes, C57BL/6 (wild-type), KO and KI, mouse, adipose / whole blood, all six exposure groups, single oral 1.0 mg/kg, read-out: Mean adipose levels, times higher than the blood levels)?
The Kp at 24 h was 42 to 68.

What about the concentration at 24 h (both sexes, C57BL/6 (wild-type), KO and KI, mouse, brain, range across all three genotypes and both sexes, single oral 1.0 mg/kg, read-out: PCB 95 levels in the whole brain) of the same compound?
Its concentration at 24 h is 13 to 21 ng/g.

What about the concentration at 24 h (female, C57BL/6 (wild-type), mouse, adipose, FWT, female wildtype mice, single oral PCB 95 1.0 mg/kg, mean ± SD, read-out: Levels in adipose) of the same compound?
The concentration at 24 h was 1310 ± 405 ng/g.

And the concentration at 24 h (female, C57BL/6 (wild-type), mouse, brain, FWT, female wildtype mice, single oral PCB 95 1.0 mg/kg, mean ± SD, read-out: Levels in brain)?
Its concentration at 24 h is 19.2 ± 7.3 ng/g.

What about the concentration at 24 h (female, C57BL/6 (wild-type), mouse, liver, FWT, female wildtype mice, single oral PCB 95 1.0 mg/kg, mean ± SD, read-out: Levels in liver) of the same compound?
The concentration at 24 h was 120 ± 42.1 ng/g.

And the concentration at 24 h (female, C57BL/6 (wild-type), mouse, whole blood, FWT, female wildtype mice, single oral PCB 95 1.0 mg/kg, mean ± SD, read-out: Levels in blood)?
Its concentration at 24 h is 9.1 ± 2.7 ng/g.

And the concentration at 24 h (female, CYP2A6-humanized (KI), mouse, adipose, FKI, female CYP2A6-humanized mice, single oral PCB 95 1.0 mg/kg, mean ± SD, read-out: Levels in adipose)?
The concentration at 24 h was 824 ± 458 ng/g.

And the concentration at 24 h (female, CYP2A6-humanized (KI), mouse, brain, FKI, female CYP2A6-humanized mice, single oral PCB 95 1.0 mg/kg, mean ± SD, read-out: Levels in brain)?
Its concentration at 24 h is 19.7 ± 6.8 ng/g.

What about the concentration at 24 h (female, CYP2A6-humanized (KI), mouse, liver, FKI, female CYP2A6-humanized mice, single oral PCB 95 1.0 mg/kg, mean ± SD, read-out: Levels in liver) of the same compound?
Its concentration at 24 h is 114 ± 44.1 ng/g.

And the concentration at 24 h (female, CYP2A6-humanized (KI), mouse, whole blood, FKI, female CYP2A6-humanized mice, single oral PCB 95 1.0 mg/kg, mean ± SD, read-out: Levels in blood)?
Its concentration at 24 h is 12.9 ± 15.4 ng/g.

What about the concentration at 24 h (female, Cyp2abfgs-null (KO), mouse, adipose, FKO, female Cyp2abfgs-null mice, single oral PCB 95 1.0 mg/kg, mean ± SD, read-out: Levels in adipose) of the same compound?
Its concentration at 24 h is 859 ± 317 ng/g.

And the concentration at 24 h (female, Cyp2abfgs-null (KO), mouse, brain, FKO, female Cyp2abfgs-null mice, single oral PCB 95 1.0 mg/kg, mean ± SD, read-out: Levels in brain)?
Its concentration at 24 h is 20.6 ± 8.2 ng/g.

What about the concentration at 24 h (female, Cyp2abfgs-null (KO), mouse, liver, FKO, female Cyp2abfgs-null mice, single oral PCB 95 1.0 mg/kg, mean ± SD, read-out: Levels in liver) of the same compound?
Its concentration at 24 h is 109 ± 29.7 ng/g.

And the concentration at 24 h (female, Cyp2abfgs-null (KO), mouse, whole blood, FKO, female Cyp2abfgs-null mice, single oral PCB 95 1.0 mg/kg, mean ± SD, read-out: Levels in blood)?
The concentration at 24 h was 8.6 ± 4.2 ng/g.

What about the concentration at 24 h (male, C57BL/6 (wild-type), mouse, adipose, MWT, male wildtype mice, single oral PCB 95 1.0 mg/kg, mean ± SD, read-out: Levels in adipose) of the same compound?
The concentration at 24 h was 1320 ± 297 ng/g.

And the concentration at 24 h (male, C57BL/6 (wild-type), mouse, brain, MWT, male wildtype mice, single oral PCB 95 1.0 mg/kg, mean ± SD, read-out: Levels in brain)?
The concentration at 24 h was 19.3 ± 4 ng/g.

What about the concentration at 24 h (male, C57BL/6 (wild-type), mouse, liver, MWT, male wildtype mice, single oral PCB 95 1.0 mg/kg, mean ± SD, read-out: Levels in liver) of the same compound?
The concentration at 24 h was 96.3 ± 31.7 ng/g.

And the concentration at 24 h (male, C57BL/6 (wild-type), mouse, whole blood, MWT, male wildtype mice, single oral PCB 95 1.0 mg/kg, mean ± SD, read-out: Levels in blood)?
Its concentration at 24 h is 14.1 ± 2 ng/g.

What about the concentration at 24 h (male, CYP2A6-humanized (KI), mouse, adipose, MKI, male CYP2A6-humanized mice, single oral PCB 95 1.0 mg/kg, mean ± SD, read-out: Levels in adipose) of the same compound?
Its concentration at 24 h is 734 ± 355 ng/g.

And the concentration at 24 h (male, CYP2A6-humanized (KI), mouse, brain, MKI, male CYP2A6-humanized mice, single oral PCB 95 1.0 mg/kg, mean ± SD, read-out: Levels in brain)?
Its concentration at 24 h is 13.3 ± 5.7 ng/g.

What about the concentration at 24 h (male, CYP2A6-humanized (KI), mouse, liver, MKI, male CYP2A6-humanized mice, single oral PCB 95 1.0 mg/kg, mean ± SD, read-out: Levels in liver) of the same compound?
The concentration at 24 h was 183 ± 190 ng/g.

And the concentration at 24 h (male, CYP2A6-humanized (KI), mouse, whole blood, MKI, male CYP2A6-humanized mice, single oral PCB 95 1.0 mg/kg, mean ± SD, read-out: Levels in blood)?
Its concentration at 24 h is 15.6 ± 18.3 ng/g.

And the concentration at 24 h (male, Cyp2abfgs-null (KO), mouse, adipose, MKO, male Cyp2abfgs-null mice, single oral PCB 95 1.0 mg/kg, mean ± SD, read-out: Levels in adipose)?
The concentration at 24 h was 692 ± 93 ng/g.

What about the concentration at 24 h (male, Cyp2abfgs-null (KO), mouse, brain, MKO, male Cyp2abfgs-null mice, single oral PCB 95 1.0 mg/kg, mean ± SD, read-out: Levels in brain) of the same compound?
The concentration at 24 h was 13.1 ± 6.1 ng/g.

What about the concentration at 24 h (male, Cyp2abfgs-null (KO), mouse, liver, MKO, male Cyp2abfgs-null mice, single oral PCB 95 1.0 mg/kg, mean ± SD, read-out: Levels in liver) of the same compound?
Its concentration at 24 h is 146 ± 42.6 ng/g.

And the concentration at 24 h (male, Cyp2abfgs-null (KO), mouse, whole blood, MKO, male Cyp2abfgs-null mice, single oral PCB 95 1.0 mg/kg, mean ± SD, read-out: Levels in blood)?
Its concentration at 24 h is 10.6 ± 7.4 ng/g.
